pIC50: −log10 of the molar value.
Legend:
Aminopeptidase N = biological target: T1, Aminopeptidase N (Sus scrofa, UniProt P15145); test: Inhibition of pig kidney microsomes aminopeptidase N preincubated for 30 mins
T1 sequence (P15145 whole entry): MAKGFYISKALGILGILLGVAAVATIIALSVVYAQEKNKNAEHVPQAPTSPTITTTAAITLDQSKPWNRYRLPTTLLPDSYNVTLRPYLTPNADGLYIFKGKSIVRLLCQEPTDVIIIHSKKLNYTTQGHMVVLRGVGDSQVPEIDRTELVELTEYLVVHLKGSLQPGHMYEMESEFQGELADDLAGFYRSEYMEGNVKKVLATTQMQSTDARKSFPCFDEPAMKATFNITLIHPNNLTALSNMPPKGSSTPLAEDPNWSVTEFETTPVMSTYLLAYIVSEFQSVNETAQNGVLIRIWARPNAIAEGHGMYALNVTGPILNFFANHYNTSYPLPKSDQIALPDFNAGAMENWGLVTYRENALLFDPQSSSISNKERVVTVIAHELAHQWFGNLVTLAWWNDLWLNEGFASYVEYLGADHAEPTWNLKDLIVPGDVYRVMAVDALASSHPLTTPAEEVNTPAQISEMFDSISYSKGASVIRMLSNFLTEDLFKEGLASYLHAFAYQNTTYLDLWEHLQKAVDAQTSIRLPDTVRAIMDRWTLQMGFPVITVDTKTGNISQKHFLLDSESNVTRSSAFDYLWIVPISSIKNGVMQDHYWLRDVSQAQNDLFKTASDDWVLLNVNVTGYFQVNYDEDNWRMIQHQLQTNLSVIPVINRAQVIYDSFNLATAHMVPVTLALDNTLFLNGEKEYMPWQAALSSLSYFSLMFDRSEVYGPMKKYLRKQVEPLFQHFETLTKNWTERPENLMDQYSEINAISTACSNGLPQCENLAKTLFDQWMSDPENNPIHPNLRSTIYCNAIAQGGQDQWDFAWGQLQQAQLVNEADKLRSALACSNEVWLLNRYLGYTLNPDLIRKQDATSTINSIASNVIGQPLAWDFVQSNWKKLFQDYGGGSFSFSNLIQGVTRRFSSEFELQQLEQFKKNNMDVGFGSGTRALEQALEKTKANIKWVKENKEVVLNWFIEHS

HL-60 = test: Cytotoxicity against human HL60 cells after 48 hrs by MTT assay; assay type: functional, cell-based; details: HL-60, 48 h
H22 = test: Antimetastatic activity in mouse H22 cells xenografted in mouse assessed as reduction of metastasized nodes at 50 mg/kg, po administered 6 days per week for 2 weeks measured after 1 day last post dose; assay type: functional; set-up: scale not given: the % may be the effect or the level left

| SMILES | pIC50 (Aminopeptidase N) | pIC50 (HL-60) | Activity (H22) |
| --- | --- | --- | --- |
| COc1cc(C(=O)N[C@H]2CCC(=O)N(CC(=O)NO)C2=O)cc(OC)c1OC |  | 3.87 | 81.56% |
| CC(C)C[C@H](NC(=O)CN1C(=O)CC[C@H](NC(=O)c2cc(O)c(O)c(O)c2)C1=O)C(=O)O | 4.26 |  |  |
| COC(=O)[C@H](CCCNC(=N)N[N+](=O)[O-])NC(=O)CN1C(=O)CC[C@H](NC(=O)c2cc(OC)c(OC)c(OC)c2)C1=O | 4.38 | 4.07 |  |
| O=C(O)CN1C(=O)CC[C@H](NC(=O)c2cc(O)c(O)c(O)c2)C1=O | 4.33 |  |  |
| COC(=O)[C@@H](CCl)NC(=O)CN1C(=O)CC[C@H](NC(=O)c2cc(OC)c(OC)c(OC)c2)C1=O | 4.30 |  |  |
| CC(C)C[C@H](NC(=O)[C@@H](O)[C@H](N)Cc1ccccc1)C(=O)O [UBENIMEX] |  | 3.61 | 60.25% |
| O=C(O)CNC(=O)CN1C(=O)CC[C@H](NC(=O)c2cc(O)c(O)c(O)c2)C1=O | 4.20 |  |  |

More lines, in order of rising pIC50 (Aminopeptidase N), values ahead:

| pIC50 (Aminopeptidase N) | SMILES | pIC50 (HL-60) | Activity (H22) |
| --- | --- | --- | --- |
| 4.30 | COC(=O)[C@@H](CS)NC(=O)CN1C(=O)CC[C@H](NC(=O)c2cc(OC)c(OC)c(OC)c2)C1=O |  |  |
| 4.42 | COC(=O)[C@H](CCCCNC(=O)OCc1ccccc1)NC(=O)CN1C(=O)CC[C@H](NC(=O)c2cc(OC)c(OC)c(OC)c2)C1=O |  |  |
| 4.66 | COC(=O)CC(NC(=O)CN1C(=O)CC[C@H](NC(=O)c2cc(OC)c(OC)c(OC)c2)C1=O)C(=O)OC (single isomer, unassigned) |  |  |
| 4.99 | O=C(CN1C(=O)CC[C@H](NC(=O)c2cc(O)c(O)c(O)c2)C1=O)N[C@@H](Cc1ccccc1)C(=O)O |  |  |
| 5.37 | O=C(CN1C(=O)CC[C@H](NC(=O)c2cc(O)c(O)c(O)c2)C1=O)NO |  |  |

Reference: ChEMBL document CHEMBL1154789, “Novel cyclic-imide peptidomimetics as aminopeptidase N inhibitors. Design, chemistry and activity evaluation. Part I” (Eur J Med Chem, 2009)
